Experimental data reported in ChEMBL document CHEMBL5137068, “Discovery of Hexahydrofuro[3,2-b]furans as New Kinase-Selective and Orally Bioavailable JAK3 Inhibitors for the Treatment of Leukemia Harboring a JAK3 Activating Mutant” (J Med Chem, 2022).
Calls of active or inactive are those of the source. No cut-off for these calls is given here.

What was measured:
U-937 [1] = assay: Induction of cell cycle arrest in human U-937 cells assessed as accumulation at G2/M phase at 100 nM measured after 24 hrs by propidium iodide staining based flow cytometric analysis (reference value: 21.41%); format: functional
[2] = target: Tyrosine-protein kinase TXK (Homo sapiens) (UniProt P42681); assay: Inhibition of TXK (unknown origin) at 0.5 uM assessed as competition rate relative to control
Chain of Tyrosine-protein kinase TXK (Homo sapiens) (P42681 whole entry): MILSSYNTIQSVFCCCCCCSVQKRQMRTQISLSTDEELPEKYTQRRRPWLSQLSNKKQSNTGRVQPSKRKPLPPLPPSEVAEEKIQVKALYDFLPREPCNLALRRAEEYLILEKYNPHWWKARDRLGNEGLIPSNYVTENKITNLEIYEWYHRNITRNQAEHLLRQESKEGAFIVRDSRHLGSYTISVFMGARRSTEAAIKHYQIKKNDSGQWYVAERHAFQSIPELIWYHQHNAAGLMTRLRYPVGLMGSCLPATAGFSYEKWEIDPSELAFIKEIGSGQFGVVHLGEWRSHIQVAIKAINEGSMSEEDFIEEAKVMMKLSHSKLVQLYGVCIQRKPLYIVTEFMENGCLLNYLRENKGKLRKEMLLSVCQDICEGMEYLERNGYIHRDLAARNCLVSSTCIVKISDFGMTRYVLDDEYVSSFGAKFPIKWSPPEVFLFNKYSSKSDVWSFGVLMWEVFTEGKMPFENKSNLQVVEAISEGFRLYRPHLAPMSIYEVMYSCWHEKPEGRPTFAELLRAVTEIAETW

[3] = target: T1, Signal transducer and activator of transcription 5A (Homo sapiens) (UniProt P42229); assay: Inhibition of STAT5 activation in human U-937 cells assessed as decrease in P-STAT5 at 100 uM by Western blot analysis; format: cell-based; settings: time 0-24 hrs, TDE = time-dependent effect
T1 sequence (whole entry): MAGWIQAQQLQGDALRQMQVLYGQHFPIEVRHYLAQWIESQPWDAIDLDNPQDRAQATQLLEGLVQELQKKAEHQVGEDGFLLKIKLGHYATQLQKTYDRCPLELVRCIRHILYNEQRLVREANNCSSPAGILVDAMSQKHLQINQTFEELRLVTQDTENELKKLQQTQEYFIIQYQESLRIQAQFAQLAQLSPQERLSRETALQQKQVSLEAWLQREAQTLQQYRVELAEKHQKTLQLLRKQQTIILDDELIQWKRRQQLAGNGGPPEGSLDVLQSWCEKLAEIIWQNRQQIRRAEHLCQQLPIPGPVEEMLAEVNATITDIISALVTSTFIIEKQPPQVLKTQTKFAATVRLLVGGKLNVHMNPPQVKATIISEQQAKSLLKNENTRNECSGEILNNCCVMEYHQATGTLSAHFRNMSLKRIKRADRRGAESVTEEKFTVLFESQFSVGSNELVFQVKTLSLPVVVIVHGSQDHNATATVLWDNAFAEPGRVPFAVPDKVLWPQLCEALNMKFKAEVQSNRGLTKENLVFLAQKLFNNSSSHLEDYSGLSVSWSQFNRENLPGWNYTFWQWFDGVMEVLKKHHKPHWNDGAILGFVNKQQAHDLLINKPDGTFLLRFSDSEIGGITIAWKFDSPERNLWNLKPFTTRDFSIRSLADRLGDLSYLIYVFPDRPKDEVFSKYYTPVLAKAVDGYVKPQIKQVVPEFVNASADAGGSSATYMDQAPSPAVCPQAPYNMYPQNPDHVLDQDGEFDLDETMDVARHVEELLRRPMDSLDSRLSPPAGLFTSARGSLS

[4] = AUC(0 to infinity) in 12 hr fasted SPF Sprague-Dawley rat at 5 mg/kg, iv upon 2 hrs fasting post-administration measured upto 24 hrs; format: ADME, organism-based; parameters: dose 5 mg/kg, time < 24 hrs, route iv; settings: in vivo
U-937 [5] = assay: Induction of cell cycle arrest in human U-937 cells assessed as downregulation of CDK6 at 0 to 300 nM measured after 24 hrs by western blot analysis; format: functional, cell-based; settings: dose 0-300 nM
U-937 [6] = assay: cells; settings: Homo sapiens, U-937, 72 h
U-937 [7] = assay: Induction of cell cycle arrest in human U-937 cells assessed as accumulation at G0/G1 phase at 11 nM measured after 24 hrs by propidium iodide staining based flow cytometric analysis (reference value: 62.95%); format: functional
BaF3 = assay: cells; settings: Mus musculus, BaF3, 72 h
Description: Antiproliferative activity against mouse BaF3 parent cell measured after 72 hrs by CCK-8 assay

[8] = target: T2, Tyrosine-protein kinase JAK3 (Homo sapiens) (UniProt P52333); assay: Inhibition of JAK3 activation in human U-937 cells assessed as decrease in P-STAT5 incubated for 0 to 24 hrs by Western blot analysis; format: cell-based; settings: time 0-24 hrs, DDE = dose-dependent effect
T2 sequence (whole entry): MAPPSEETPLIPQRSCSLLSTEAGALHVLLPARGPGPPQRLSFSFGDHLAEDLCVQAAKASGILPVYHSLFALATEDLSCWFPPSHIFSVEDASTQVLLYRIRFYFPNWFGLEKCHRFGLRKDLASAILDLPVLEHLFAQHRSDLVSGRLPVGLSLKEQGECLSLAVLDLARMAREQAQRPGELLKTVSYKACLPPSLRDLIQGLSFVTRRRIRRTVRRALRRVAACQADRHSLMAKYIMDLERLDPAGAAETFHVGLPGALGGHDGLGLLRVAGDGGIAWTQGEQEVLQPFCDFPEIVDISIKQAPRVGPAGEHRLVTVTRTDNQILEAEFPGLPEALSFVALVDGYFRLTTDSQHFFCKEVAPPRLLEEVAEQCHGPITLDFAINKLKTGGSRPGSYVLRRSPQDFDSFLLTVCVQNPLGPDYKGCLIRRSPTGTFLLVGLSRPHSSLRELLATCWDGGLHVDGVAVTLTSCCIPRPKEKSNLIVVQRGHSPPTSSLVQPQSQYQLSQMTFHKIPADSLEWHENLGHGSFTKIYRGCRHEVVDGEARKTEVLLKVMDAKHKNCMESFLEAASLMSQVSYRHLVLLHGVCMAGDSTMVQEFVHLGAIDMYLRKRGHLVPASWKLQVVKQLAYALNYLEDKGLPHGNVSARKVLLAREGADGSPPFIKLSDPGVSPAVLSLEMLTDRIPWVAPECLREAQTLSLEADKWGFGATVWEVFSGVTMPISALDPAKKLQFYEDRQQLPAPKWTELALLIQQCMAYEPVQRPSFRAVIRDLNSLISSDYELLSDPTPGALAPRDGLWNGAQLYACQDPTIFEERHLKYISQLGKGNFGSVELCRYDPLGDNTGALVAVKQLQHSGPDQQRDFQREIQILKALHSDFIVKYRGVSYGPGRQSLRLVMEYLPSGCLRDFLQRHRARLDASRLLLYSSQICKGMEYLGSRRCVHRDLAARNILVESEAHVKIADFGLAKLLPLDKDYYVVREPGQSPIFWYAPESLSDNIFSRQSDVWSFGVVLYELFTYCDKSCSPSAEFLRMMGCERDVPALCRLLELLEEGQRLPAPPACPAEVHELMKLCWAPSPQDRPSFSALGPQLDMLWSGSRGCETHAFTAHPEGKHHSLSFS

[9] = Oral bioavailability in 12 hr fasted SPF Sprague-Dawley rat at 15 mg/kg upon 2 hrs fasting post-administration measured upto 24 hrs; format: ADME, organism-based; settings: in vivo
U-937 [10] = assay: Induction of cell cycle arrest in human U-937 cells assessed as downregulation of CDK2 at 0 to 300 nM measured after 24 hrs by western blot analysis; format: functional, cell-based; settings: dose 0-300 nM
[11] = target: Receptor-type tyrosine-protein kinase FLT3 (Homo sapiens) (UniProt P36888); assay: Inhibition of human FLT3 at 0.5 uM relative to control
Chain of Receptor-type tyrosine-protein kinase FLT3 (Homo sapiens) (P36888 whole entry): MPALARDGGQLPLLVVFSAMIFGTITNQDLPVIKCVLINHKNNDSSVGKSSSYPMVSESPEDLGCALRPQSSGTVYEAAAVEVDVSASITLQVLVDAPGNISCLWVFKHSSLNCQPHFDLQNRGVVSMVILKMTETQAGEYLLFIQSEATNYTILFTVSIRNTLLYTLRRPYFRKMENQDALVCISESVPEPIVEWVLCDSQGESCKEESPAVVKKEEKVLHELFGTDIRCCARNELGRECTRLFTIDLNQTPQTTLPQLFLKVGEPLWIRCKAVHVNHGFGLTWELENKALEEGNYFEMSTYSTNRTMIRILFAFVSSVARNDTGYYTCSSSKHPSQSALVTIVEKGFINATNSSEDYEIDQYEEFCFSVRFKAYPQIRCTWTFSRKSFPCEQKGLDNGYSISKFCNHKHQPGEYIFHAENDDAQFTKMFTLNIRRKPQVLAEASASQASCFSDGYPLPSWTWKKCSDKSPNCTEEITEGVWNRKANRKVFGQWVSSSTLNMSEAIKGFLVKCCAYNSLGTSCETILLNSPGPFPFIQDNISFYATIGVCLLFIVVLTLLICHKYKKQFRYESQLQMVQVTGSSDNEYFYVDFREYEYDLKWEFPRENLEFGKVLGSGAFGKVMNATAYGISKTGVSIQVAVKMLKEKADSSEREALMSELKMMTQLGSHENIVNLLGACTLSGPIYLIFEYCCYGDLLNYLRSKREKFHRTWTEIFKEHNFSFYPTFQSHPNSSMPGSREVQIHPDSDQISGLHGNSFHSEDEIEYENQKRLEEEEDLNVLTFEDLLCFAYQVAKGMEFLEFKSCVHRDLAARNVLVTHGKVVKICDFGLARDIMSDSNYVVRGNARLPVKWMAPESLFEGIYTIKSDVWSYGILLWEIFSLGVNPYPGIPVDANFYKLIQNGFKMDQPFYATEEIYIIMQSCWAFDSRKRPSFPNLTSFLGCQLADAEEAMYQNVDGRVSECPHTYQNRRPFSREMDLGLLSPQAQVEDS

[12] = target: Receptor tyrosine-protein kinase erbB-2 (Homo sapiens) (UniProt P04626); assay: Inhibition of HER2 (unknown origin) at 0.5 uM relative to control
Chain of Receptor tyrosine-protein kinase erbB-2 (Homo sapiens) (P04626 whole entry): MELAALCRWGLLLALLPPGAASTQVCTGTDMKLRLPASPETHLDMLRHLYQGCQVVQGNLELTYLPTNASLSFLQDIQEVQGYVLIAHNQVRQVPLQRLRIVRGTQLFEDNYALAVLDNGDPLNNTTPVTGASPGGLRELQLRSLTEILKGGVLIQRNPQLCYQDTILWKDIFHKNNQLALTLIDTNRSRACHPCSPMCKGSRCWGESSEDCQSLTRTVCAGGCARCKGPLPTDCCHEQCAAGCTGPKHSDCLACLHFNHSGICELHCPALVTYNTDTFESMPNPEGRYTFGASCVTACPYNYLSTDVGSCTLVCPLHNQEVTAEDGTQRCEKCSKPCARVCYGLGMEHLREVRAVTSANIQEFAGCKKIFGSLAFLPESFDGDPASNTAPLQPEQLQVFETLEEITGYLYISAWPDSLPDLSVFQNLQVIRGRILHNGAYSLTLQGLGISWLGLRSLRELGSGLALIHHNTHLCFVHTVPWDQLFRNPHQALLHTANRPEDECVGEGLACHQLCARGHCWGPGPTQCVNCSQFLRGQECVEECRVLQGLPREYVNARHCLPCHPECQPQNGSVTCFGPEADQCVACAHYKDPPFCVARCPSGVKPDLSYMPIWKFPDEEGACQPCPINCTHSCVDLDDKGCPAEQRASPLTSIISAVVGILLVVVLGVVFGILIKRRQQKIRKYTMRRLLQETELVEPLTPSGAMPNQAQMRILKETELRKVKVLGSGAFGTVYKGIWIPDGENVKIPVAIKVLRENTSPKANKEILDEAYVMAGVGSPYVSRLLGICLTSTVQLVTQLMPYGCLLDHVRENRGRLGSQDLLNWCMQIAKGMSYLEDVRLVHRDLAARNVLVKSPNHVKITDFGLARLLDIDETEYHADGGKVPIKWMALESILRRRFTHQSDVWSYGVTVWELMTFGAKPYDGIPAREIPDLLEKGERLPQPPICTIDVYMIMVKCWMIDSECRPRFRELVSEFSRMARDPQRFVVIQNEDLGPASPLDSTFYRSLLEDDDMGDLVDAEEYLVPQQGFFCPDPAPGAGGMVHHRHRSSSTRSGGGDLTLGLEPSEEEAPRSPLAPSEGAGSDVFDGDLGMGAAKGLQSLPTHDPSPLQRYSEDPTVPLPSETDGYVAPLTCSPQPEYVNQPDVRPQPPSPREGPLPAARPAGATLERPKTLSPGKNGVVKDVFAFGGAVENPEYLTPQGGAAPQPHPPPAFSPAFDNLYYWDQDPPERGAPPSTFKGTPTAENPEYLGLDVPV

[13] = target: Tyrosine-protein kinase BTK (Homo sapiens) (UniProt Q06187); assay: Inhibition of BTK (unknown origin) at 0.5 uM relative to control
Chain of Tyrosine-protein kinase BTK (Homo sapiens) (Q06187 whole entry): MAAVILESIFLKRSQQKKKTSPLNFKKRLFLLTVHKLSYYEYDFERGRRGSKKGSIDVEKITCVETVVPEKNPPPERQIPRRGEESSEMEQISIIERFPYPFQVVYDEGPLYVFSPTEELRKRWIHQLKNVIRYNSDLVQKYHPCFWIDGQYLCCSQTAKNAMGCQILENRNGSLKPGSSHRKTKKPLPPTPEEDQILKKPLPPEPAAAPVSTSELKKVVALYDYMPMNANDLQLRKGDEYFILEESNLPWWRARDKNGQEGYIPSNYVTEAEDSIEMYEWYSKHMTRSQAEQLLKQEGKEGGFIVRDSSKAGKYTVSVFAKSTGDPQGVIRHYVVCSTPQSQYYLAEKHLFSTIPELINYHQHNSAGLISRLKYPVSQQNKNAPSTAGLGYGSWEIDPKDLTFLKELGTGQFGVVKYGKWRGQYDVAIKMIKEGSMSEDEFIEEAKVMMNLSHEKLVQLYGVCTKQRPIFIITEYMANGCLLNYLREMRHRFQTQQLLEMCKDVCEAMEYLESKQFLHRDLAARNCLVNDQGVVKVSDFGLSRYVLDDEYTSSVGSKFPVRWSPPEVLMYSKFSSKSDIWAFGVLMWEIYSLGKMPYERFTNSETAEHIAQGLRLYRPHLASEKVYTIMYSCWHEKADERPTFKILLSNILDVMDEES

[14] = target: NUAK family SNF1-like kinase 1 (Homo sapiens, UniProt O60285); assay: Inhibition of human ARK5
Chain of NUAK family SNF1-like kinase 1 (O60285 whole entry): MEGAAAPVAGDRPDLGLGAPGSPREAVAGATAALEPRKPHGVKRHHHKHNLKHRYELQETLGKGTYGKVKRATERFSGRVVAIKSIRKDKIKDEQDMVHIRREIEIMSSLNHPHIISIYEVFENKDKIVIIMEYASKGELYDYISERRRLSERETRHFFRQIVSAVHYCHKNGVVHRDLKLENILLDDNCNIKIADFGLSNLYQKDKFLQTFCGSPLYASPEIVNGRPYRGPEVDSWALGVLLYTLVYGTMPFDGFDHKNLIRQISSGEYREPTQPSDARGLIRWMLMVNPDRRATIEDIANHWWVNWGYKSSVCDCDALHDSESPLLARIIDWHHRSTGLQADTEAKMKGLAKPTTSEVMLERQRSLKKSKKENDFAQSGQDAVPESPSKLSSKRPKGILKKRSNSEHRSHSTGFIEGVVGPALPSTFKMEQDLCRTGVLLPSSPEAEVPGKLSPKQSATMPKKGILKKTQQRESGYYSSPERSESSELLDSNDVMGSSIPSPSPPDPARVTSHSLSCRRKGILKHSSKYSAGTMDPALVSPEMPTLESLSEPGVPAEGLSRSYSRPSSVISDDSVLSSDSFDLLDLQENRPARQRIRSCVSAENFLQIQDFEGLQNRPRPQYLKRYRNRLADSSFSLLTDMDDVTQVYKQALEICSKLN

[15] = target: Tyrosine-protein kinase Tec (Homo sapiens) (UniProt P42680); assay: Inhibition of TEC (unknown origin) at 0.5 uM assessed as competition rate relative to control
Chain of Tyrosine-protein kinase Tec (Homo sapiens) (P42680 whole entry): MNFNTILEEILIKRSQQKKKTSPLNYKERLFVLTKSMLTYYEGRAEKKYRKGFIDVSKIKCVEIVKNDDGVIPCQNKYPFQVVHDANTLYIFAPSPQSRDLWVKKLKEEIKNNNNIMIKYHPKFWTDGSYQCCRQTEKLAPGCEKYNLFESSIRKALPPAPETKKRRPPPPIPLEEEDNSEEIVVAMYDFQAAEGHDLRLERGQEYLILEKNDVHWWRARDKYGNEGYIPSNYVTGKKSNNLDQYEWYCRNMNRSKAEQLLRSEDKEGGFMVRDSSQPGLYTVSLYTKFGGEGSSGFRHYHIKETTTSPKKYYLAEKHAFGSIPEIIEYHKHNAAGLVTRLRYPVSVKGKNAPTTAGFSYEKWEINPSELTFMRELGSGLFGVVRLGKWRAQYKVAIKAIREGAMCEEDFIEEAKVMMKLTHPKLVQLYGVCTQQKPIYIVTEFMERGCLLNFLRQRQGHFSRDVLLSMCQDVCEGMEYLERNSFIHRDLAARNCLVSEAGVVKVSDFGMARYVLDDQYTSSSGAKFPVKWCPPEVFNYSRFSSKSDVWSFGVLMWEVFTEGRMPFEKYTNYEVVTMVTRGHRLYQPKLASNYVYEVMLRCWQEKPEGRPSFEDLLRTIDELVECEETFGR

inhibition [2]: 40% | inhibition [3]: Tde | AUC(0-inf) [4]: 537 ng·h/mL | IC50 (U-937 [6]): 20.2 nM | IC50 (BaF3): 165 nM | inhibition [8]: Dde | bioavailability [9]: 20.7% | inhibition [11]: 23% | inhibition [12]: 115% | inhibition [13]: 114% | IC50 [14]: 25 nM | inhibition [15]: 40%
SMILES: C=CC(=O)Nc1cc(Nc2ncc(Cl)c(O[C@@H]3CO[C@H]4[C@@H]3OC[C@H]4OC)n2)ccc1N(C)CCN(C)C
Activity (U-937 [1]): 17.86% | Activity (U-937 [5]): Active | Activity (U-937 [7]): 62.58% | Activity (U-937 [10]): Active
